Where a name gives a salt, the structure may show the parent alone. Starred links: 1 amine or outer side, 2 acyl side, 3 side chain; linkers in the order of their positions; H or OH if unused. Non-standard residues stand in square brackets, D forms with d. Residues, ends and D or L forms follow the SMILES beside them. ξ: configuration not given here. X1 = COC(=O)/C=C/CC[C@H](N[*:1])C(=O)[*:2]; Pro(4-oxo) = O=C1CN[C@H](C(=O)O)C1; Ile(3ξ) = CCC(C)[C@H](N)C(=O)O; Nle = CCCC[C@H](N)C(=O)O
Molecular target: T1, Factor XIIIa (Homo sapiens, UniProt P00488)
T1 construct: purchased Zedira T027 or T007
T1 sequence (P00488 39-732 limits assumed): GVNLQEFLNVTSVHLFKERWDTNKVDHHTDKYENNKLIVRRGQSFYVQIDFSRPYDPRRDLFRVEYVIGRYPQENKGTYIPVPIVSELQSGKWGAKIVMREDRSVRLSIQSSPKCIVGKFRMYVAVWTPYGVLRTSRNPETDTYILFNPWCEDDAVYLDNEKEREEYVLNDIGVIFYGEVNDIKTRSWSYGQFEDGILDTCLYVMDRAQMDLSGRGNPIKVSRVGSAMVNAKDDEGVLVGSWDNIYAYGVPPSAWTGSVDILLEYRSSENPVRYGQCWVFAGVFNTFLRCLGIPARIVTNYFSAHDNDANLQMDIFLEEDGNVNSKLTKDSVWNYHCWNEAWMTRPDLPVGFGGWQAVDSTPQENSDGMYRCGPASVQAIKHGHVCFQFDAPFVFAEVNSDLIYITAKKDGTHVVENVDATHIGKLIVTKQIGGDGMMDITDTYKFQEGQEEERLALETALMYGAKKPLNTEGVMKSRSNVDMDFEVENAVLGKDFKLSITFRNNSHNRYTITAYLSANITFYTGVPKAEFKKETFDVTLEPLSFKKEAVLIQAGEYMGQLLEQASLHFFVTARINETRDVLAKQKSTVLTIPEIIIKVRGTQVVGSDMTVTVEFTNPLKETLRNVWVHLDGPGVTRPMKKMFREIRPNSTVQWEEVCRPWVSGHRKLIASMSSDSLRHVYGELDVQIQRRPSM
Experiment: Fluorogenic assay kit F001 (Zedira), isopeptidase activity of FXIIIa
Assay type: biochemical
Conditions: FXIIIa after activation by thrombin; fluorescence ex 313 nm / em 418 nm
Method: Kinetic data of the inhibitor 1 (compound 4) and inhibitor 2 (compound 7) using the commercial fluorogenic assay kit F001 (Zedira) show an IC50 of about 0.11 and 0.08 μM respectively. The fluorogenic assay kit F001 (Zedira) is ready to use. Briefly, recombinant factor XIII (Zedira, product number T027) or human blood derived factor XIII (T007) is reconstituted in water. The enzymatic activity is measured in a suitable buffer (e.g. TRIS buffer pH 7.5 containing calcium chloride, sodium chloride, poly ethylene glycol (PEG), glycine methyl ester, clot inhibitor peptide GPRP-amide) after activation by thrombin. Factor XIIIa cleaves a dark quenching molecule from the side chain of the modified peptide incorporating glycine methyl ester (so called iso-peptidase activity). Subsequently, the fluorescence of an N-terminal coupled dye increases and can be monitored on-line (excitation wavelength 313 nm; emission wavelength 418 nm). The inhibitor of interest can be added after the activation of Factor XIII by thrombin is completed. The IC50 value represents the inhibitor concentration leading to a 50% inhibition of FXIIIa activity.

| Compound | IC50 |
| --- | --- |
| CCCC[C@H](NC(=O)[C@H](CC/C=C/C(=O)OC)NC(=O)[C@@H](CC(=O)O)NC(C)=O)C(=O)N[C@@H](CCCC)C(=O)N[C@@H](CC(C)C)C(=O)N1CCC[C@H]1C(=O)N[C@@H](Cc1c[nH]c2ccccc12)C(=O)N1CCC[C@H]1C(=O)O [compound 4, (S)-1-((S)-2-((S)-1-((4R,7S,10S,13S,16S)-10,13-dibutyl-4-(carboxymethyl)-7-((E)-5-methoxy-5-oxopent-3-enyl)-18-methyl-2,5,8,11,14-pentaoxo-3,6,9,12,15-pentaazanonadecanecarbonyl)pyrrolidine-2-carboxamido)-3-(1H-indol-3-yl)propanoyl)pyrrolidine-2-carboxylic acid] (Ac-[dD][X1][Nle][Nle]LPWP-OH) | ~0.11 µM |
| CCCC[C@H](NC(=O)[C@H](CC/C=C/C(=O)OC)NC(=O)[C@@H]1CC(=O)CN1)C(=O)N[C@H](C(=O)N[C@@H](CC(C)C)C(=O)N1CCC[C@H]1C(=O)N[C@@H](Cc1c[nH]c2ccccc12)C(=O)N1CCC[C@H]1C(=O)O)C(C)CC (stereo partly drawn) [compound 7, (S)-1-((S)-2-((S)-1-((8S,11S,14S,17S,E)-14-sec-butyl-11-butyl-17-isobutyl-3,9,12,15-tetraoxo-8-((S)-4-oxopyrrolidine-2-carboxamido)-2-oxa-10,13,16-triazaoctadec-4-ene)pyrrolidine-2-carboxamido)-3-(1H-indol-3-yl)propanoyl)pyrrolidine-2-carboxylic acid trifluoroacetate] (H-[Pro(4-oxo)][X1][Nle][Ile(3ξ)]LPWP-OH) | ~0.08 µM |

— US20160137990A1, “CRYSTAL STRUCTURE OF BLOOD COAGULATION FACTOR XIIIA” (ZEDIRA GMBH, priority 2012, published 2016)
